US20160106695A1, “PETROSELINIC ACID OR A COMBINATION OF ACTIVE INGREDIENTS COMPRISING AT LEAST PETROSELINIC ACID FOR PROMOTING WEIGHT LOSS AND/OR WEIGHT MAINTENANCE” (NESTEC SA, priority 2013, published 2016)

System: lipoxin A4 production by mononuclear blood cells
Test: Synthesis/release of lipoxin A4 by stimulated (PMA/A23187 + DHA/EPA) mononuclear blood cells, LC-MS quantification
Type: cell-based
Conditions: 30 min pre-incubation, 2 hours of stimulation
Procedure: Mononuclear blood cells are cultured under 5% CO2 and at 37° C. in a serum-free medium for macrophages (SFM Macrophage; Invitrogen 12065074) for 24 hours.
After this step, the medium is replaced with the same fresh test medium also containing the active agents at the various doses for 30 minutes in the presence of the various products to be evaluated, as indicated in the table of results below. The inflammatory response was then triggered in the presence of phorbol myristate (0.05 μM) and calcium ionophore (1 μM) and of a lipid substrate mixture composed of docosahexaenoic acid (DHA—1 μg/mL) and eicosapentaenoic acid (EPA—1 μg/mL).
The supernatants were then collected after 2 hours of stimulation and frozen at −80° C. before preparation for analysis by mass spectrometry.
Experimental triplicates (three wells) were prepared per experimental condition. Into each culture plate was placed a control corresponding to cells stimulated with the PMA/A23187 mixture and/or with addition of the equimolar mixture of fatty acids.
The thawed supernatants were concentrated by solid-phase extraction (SPE) and taken up in methanol before spectrometric analysis. The analytical method used consists in separating the various analytes by high-pressure liquid chromatography as a function of their retention time and in quantifying them by mass spectrometry. […]

Compound	Level of lipoxin A4 production (% modulation relative to the control) (taurine 3.1 mg/ml)	Level of lipoxin A4 production (% modulation relative to the control) (zinc gluconate 0.005 mg/ml)
NCCS(=O)(=O)O [Taurine]	+38%	
Zinc gluconate		−5%
